Where no end group is shown, it is not given here.
Columns and labels:
cancer patients [1] = test: Skin test for immediate and delayed type hypersensitivity in cancer patients; details: for immediate hypersensitivity reaction in skin test: human, in vivo; for type I allergy in skin tests during the course of vaccination: skin tests before the 9th and 17th dose (ART413, SART3315), 3rd pre-vaccination skin test (CypB91)
Description: For the skin test, 10 μg of 5 kinds of peptides was subcutaneously administered to each patient. Saline was used as the negative control. 20 minutes and 24 hours after injection, immediate and delayed type hypersensitivity (DHT) reactions were looked for. The skin test reaction was determined as positive if erythema and sclerosis were more than 10 mm in diameter. If the immediate hypersensitivity reaction was negative, a peptide was administered. Each peptide solution (3 mg/ml) was mixed with the same amount of IFA (Montanide ISA-51) and emulsified in a 5-mI plastic syringe, and 3 ml of the emulsion was subcutaneously administered to the lateral femoral region every two weeks. Serum PSA level was measured 4 weeks after vaccination. The time passed was defined as the time from the registration day to the date when the progress of the target disease was recorded. For patients who chose to discontinue the study without any progress of the target disease (e.g., increase in PSA) it was determined that the disease had progressed at the time the study was stopped.
When an immediate hypersensitivity reaction positive in the skin test of one of these peptides, that peptide was vaccinated if the fifth peptide of criteria A, B, or Z was negative in the skin test. […] In Table 14, o signifies vaccine peptides given to each patient.
Vaccine was administered to HLA-A24 positive patients with progressive cancer as following. CypB91 was given to lung cancer patients, ART475 to ovarian cancer patients, and SART3109 to colorectal cancer patients. None of the patients received any steroids or other immunosuppressants from 4 weeks before the beginning of this study to the end of the study. When the skin test was negative, 1 ml of peptide solution (1 mg/ml) was emulsified with the same amount of Freund's incomplete adjuvant (Montanide ISA-51) and injected subcutaneously. In this embodiment, all patients were vaccinated at least three times every two weeks, and up to seventeen times, depending on the patient's wishes.

healthy donors = details: in vivo
cancer patients [2] = details: cancer patients (Miyagi et al., Clin. Cancer Res. 7:3950, 2001); cited from earlier work
[3] = tested on: HLA-A24 restricted antigen peptide-specific T cells (CTL precursors) in PBMCs; type: cell-based, human
[4] = tested on: CD8 positive and HLA-A24/peptide tetramer positive T cells; details: PBMCs of healthy donors sensitized in vitro with EBV peptide, protocol C
Description: Recombinant HLA-A2402 a chains containing a biotinated portion and recombinant β2-microglobline were synthesized and used for refolding of soluble HLA molecules in the presence of HLA-A2402 binding peptides. […] Monomer HLA-peptide complex was biotinated with BirA in the a chain, which was isolated form free biotin by gel filtration. The biotinated HLA was tetramerized with 4:1 molar ratio of Strept-avidin-PE. PBMCs sensitized in vitro were re-suspended at the ratio of 5×10^5 cells per 25 μl of phosphate buffer saline (PBS) containing 20% of human AB serum. […] After that, the cells were washed with PBS and analyzed using FACScan. Twenty thousand events were obtained.
More specifically, PBMCs stimulated according to protocol C determined in Example 3 were analyzed by the tetramer assay as described above.

Row | Sequence | immediate hypersensitivity reaction in skin test (cancer patients [1]) | type I allergy in skin tests during the course of vaccination (cancer patients [1]) | rate of skin reaction occurrence (donors) (healthy donors) | rate of skin reaction occurrence (healthy donors) [%] | allergic skin reaction in pre-vaccination study (cancer patients [2]) | further results
1 | DFMIQGGDF [CypB91] | positive in all patients | induced type I allergy | no such response |  |  | 
2 | AYIDFEMKI [SART3315] |  | did not induce type I allergy | 18/40 | 45 | induced allergic skin reaction | 
3 | AFLRHAAL [ART413, AFLRHAAL] | positive in all patients | did not induce type I allergy | 38/40 | 95 | induced allergic skin reaction | 
4 | KFHRVIKDF [CypB84] |  |  | 39/41 | 95 |  | patients with immediate hypersensitivity reaction in pre-vaccination skin test (cancer patients [1]; vaccinated patients with lung cancer, Phase I clinical trial): 8 of 10
5 | TYGPVFMCL [EBV, reference compound] |  |  |  |  |  | detection of peptide-specific T cells [3]: detected in all 10 donors; difference in IFN-γ production between target cells sensitized with EB virus peptide and HIV peptide [3]: 2775 pg/mL; difference in production level of IFN-γ between target cells sensitized with EB virus peptide and HIV peptide [3]: more than 300 pg/ml; ratio of the CD8 positive and HLA-A24/peptide tetramer positive subsets [4]: 1.15%
6 | SYTRLFLIL [SART2899] | positive in all patients |  | 10/40 | 25 | induced allergic skin reaction | 
7 | RYLRQQLLGI [HIV peptide] |  |  |  |  |  | ratio of the CD8 positive and HLA-A24/peptide tetramer positive subsets [4]: 0.03%

From US20060035291A1, “Method of detecting cellular immunity and application thereof to drugs” (priority 2001, published 2006)
